Reference: patent publication US8575150B2, “Triazole derivatives for treatment of Alzheimer's disease” (Merck Sharp & Dohme Corp., priority 2008, dated 2013)

Biological target: T1, γ-secretase, Aβ(1-42) production in SH-SY5Y neuroblastoma cells overexpressing SPA4CT (Homo sapiens, UniProt P49768)
T1 construct: Human SH-SY5Y neuroblastoma cells overexpressing the direct γ-secretase substrate SPA4CT; endogenous in cells; host or cells: human SH-SY5Y neuroblastoma cells, transfected only with the substrate SPA4CT and induced with sodium butyrate
Test: Cell-based γ-secretase assay, Aβ(42) detection
Conditions: overnight incubation
Protocol: Cell-Based γ-Secretase Assay
Human SH-SY5Y neuroblastoma cells overexpressing the direct γ-secretase substrate SPA4CT were induced with sodium butyrate (10 mM) for 4 hours prior to plating. Cells were plated at 35,000 cells/well/100 μl in 96-well plates in phenol red-free MEM/10% FBS, 50 mM HEPES, 1% Glutamine and incubated for 2 hrs at 37° C., 5% CO2.
Appropriate vehicle and inhibitor controls were used to determine the window of the assay.
After incubation overnight at 37° C., 5% CO2, 25 μl and […] were transferred into a standard Meso avidin-coated 96-well plate for detection of Aβ(40) and Aβ(42) peptides, respectively. 25 μl Meso Assay buffer (PBS, 2% BSA, 0.2% Tween-20) was added to the Aβ(40) wells followed by the addition of 25 μl of the respective antibody premixes to the wells:
Aβ(42) premix: 1 μg/mlruthenylated G2-11 antibody, 4 μg/ml; and biotinylated 4G8 antibody diluted in Origen buffer
(Biotinylated 4G8 antibody supplied by Signet Pathology Ltd; G2-10 and G2-11 antibodies supplied by Chemicon)
After overnight incubation of the assay plates on a shaker at 4° C., the Meso Scale Sector 6000 Imager was calibrated according to the manufacturer's instructions. After washing the plates 3 times with 150 μl of PBS per well, 150 μl Meso Scale Discovery read buffer was added to each well and the plates were read on the Sector 6000 Imager according to the manufacturer's instructions.
The total signal and the background were defined by the corresponding Me2SO and inhibitor controls.

Work on `O=C1C(n2cc(-c3ccc(Oc4cccnc4)cc3)nn2)CCc2c(F)cccc2N1CC(F)(F)F` (stereo not drawn) [Example 61, 6-fluoro-3-{4-[4-(pyridin-3-yloxy)phenyl]-1H-1,2,3-triazol-1-yl}-1-(2,2,2-trifluoroethyl)-1,3,4,5-tetrahydro-2H-1-benzazepin-2-one] yielded an IC50 of 537 nM.
Compound `O=C1C(n2cc(-c3ccc(-c4ccnnc4)cc3)nn2)CCc2c(F)cccc2N1CC(F)(F)F` (racemic) [Example 123, (R) and (S)-6-fluoro-3-[4-(4-pyridazin-4-ylphenyl)-1H-1,2,3-triazol-1-yl]-1-(2,2,2-trifluoroethyl)-1,3,4,5-tetrahydro-2H-1-benzazepin-2-one] has an IC50 of 83 nM.
Compound `O=C1C(n2cc(-c3ncc(-c4ccncc4)cn3)nn2)CCc2c(F)cccc2N1CC(F)(F)F` (stereo not drawn) [Example 2, 6-fluoro-3-{4-[5-(pyridin-4-yl)pyrimidin-2-yl]-1H-1,2,3-triazol-1-yl}-1-(2,2,2-trifluoroethyl)-1,3,4,5-tetrahydro-2H-1-benzazepin-2-one] has an IC50 of 1330 nM.
`COc1cc(-c2nc(C)no2)ccc1-c1cn(C2CCc3c(F)cccc3N(CC(F)(F)F)C2=O)nn1` (stereo not drawn) [Example 57, 6-fluoro-3-{4-[2-methoxy-4-(3-methyl-1,2,4-oxadiazol-5-yl)phenyl]-1H-1,2,3-triazol-1-yl}-1-(2,2,2-trifluoroethyl)-1,3,4,5-tetrahydro-2H-1-benzazepin-2-one] gave an IC50 of 431 nM.
With `COc1cc(-c2cn(C3CCc4ccccc4N(CC(F)(F)F)C3=O)nn2)ccc1-c1ccncc1` (stereo not drawn) [Example 1, 3-[4-(3-methoxy-4-pyridin-4-ylphenyl)-1H-1,2,3-triazol-1-yl]-1-(2,2,2-trifluoroethyl)-1,3,4,5-tetrahydro-2H-1-benzazepin-2-one] the IC50 was 80 nM.
`COc1cc(-c2cn(C3CCc4c(F)cccc4N(CC(F)(F)F)C3=O)nn2)ccc1Nc1cccnc1` (stereo not drawn) [Example 92, 6-fluoro-3-{4-[3-methoxy-4-(pyridin-3-ylamino)phenyl]-1H-1,2,3-triazol-1-yl}-1-(2,2,2-trifluoroethyl)-1,3,4,5-tetrahydro-2H-1-benzazepin-2-one] showed an IC50 of 226 nM.
